Reference: ChEMBL document CHEMBL1158843, “Development of a radiochemical cyclooxygenase-1 and -2 in vitro assay for identification of natural products as inhibitors of prostaglandin biosynthesis” (J Nat Prod, 1998)

Assays:
[1] = biological target: T1, Prostaglandin G/H synthase 1 (Bos taurus, UniProt O62664); test: Inhibition of bovine seminal microsomal COX1 assessed as PGE2 production
T1 sequence (O62664 whole entry): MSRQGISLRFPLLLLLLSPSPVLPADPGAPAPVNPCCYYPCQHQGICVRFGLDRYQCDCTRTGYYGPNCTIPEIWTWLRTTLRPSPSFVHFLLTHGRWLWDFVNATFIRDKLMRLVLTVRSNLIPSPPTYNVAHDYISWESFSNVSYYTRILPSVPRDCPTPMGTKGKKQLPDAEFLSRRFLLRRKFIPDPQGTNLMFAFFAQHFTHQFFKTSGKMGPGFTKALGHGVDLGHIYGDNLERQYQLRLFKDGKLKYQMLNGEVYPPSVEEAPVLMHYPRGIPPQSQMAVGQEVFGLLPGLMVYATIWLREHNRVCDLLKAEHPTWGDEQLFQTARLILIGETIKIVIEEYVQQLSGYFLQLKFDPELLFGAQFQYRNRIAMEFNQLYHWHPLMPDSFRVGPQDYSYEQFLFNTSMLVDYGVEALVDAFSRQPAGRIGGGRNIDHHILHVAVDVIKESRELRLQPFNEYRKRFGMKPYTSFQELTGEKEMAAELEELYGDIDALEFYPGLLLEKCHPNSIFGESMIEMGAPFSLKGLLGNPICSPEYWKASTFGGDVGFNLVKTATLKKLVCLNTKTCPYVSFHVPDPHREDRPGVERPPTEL

[2] = biological target: T1, Prostaglandin G/H synthase 1; test: Inhibition of bovine seminal microsomal COX1 assessed as PGE2 production preincubated for 10 mins

Structure (SMILES): Oc1cc(O)c2c(c1)O[C@H](c1ccc(O)c(O)c1)[C@@H](O)C2 [CIANIDANOL]
- IC50 [1]: 183 µM
- IC50 [2]: 279 µM

Structure (SMILES): C[C@@H]1O[C@@H](Oc2c(-c3ccc(O)c(O)c3)oc3cc(O)cc(O)c3c2=O)[C@H](O)[C@H](O)[C@H]1O [QUERCITRIN]
- IC50 [1]: > 2000 µM
- IC50 [2]: > 2000 µM
